ChEMBL document CHEMBL3044789, “Comparing weed and crop seedling response to pre-emergence pendimethalin application in Corchorus olitorius and Abelmoschus esculentus” (Crop Prot, 2006)

What was measured:
[1] = test system: Calopogonium mucunoides; assay: Herbicidal activity against Calopogonium mucunoides in Abelmoschus esculentus plots assessed as weed cover at 0.33 kg a.i/ha after 4 weeks (reference value: 22.6 +/- 0.49 %); type: functional
[2] = test system: Rottboellia cochinchinensis; assay: Herbicidal activity against Rottboellia cochinchinensis in Abelmoschus esculentus plots assessed as weed cover at 0.33 kg a.i/ha after 4 weeks (reference value: 22.6 +/- 0.49 %); type: functional
[3] = test system: Euphorbia heterophylla; assay: Herbicidal activity against Euphorbia heterophylla in Abelmoschus esculentus plots assessed as major weed growth at 0.33 kg a.i/ha after 2 weeks; type: functional
[4] = test system: Synedrella nodiflora; assay: Herbicidal activity against Synedrella nodiflora in Abelmoschus esculentus plots assessed as minor weed growth at 1.32 kg a.i/ha after 2 weeks; type: functional
[5] = test system: Euphorbia heterophylla; assay: Herbicidal activity against Euphorbia heterophylla in Corchorus olitorius plots assessed as major weed growth at 0.33 kg a.i/ha after 2 weeks; type: functional
[6] = test system: Rottboellia cochinchinensis; assay: Herbicidal activity against Rottboellia cochinchinensis in Corchorus olitorius plots assessed as major weed growth at 0.33 kg a.i/ha after 2 weeks; type: functional
[7] = test system: Synedrella nodiflora; assay: Herbicidal activity against Synedrella nodiflora in Corchorus olitorius plots assessed as minor weed growth at 1.32 kg a.i/ha after 2 weeks; type: functional
[8] = test system: Synedrella nodiflora; assay: Herbicidal activity against Synedrella nodiflora in Corchorus olitorius plots assessed as major weed growth at 0.99 kg a.i/ha after 2 weeks; type: functional
[9] = test system: Ageratum conyzoides; assay: Herbicidal activity against Ageratum conyzoides in Corchorus olitorius plots assessed as major weed growth at 0.33 kg a.i/ha after 2 weeks; type: functional
[10] = test system: Ageratum conyzoides; assay: Herbicidal activity against Ageratum conyzoides in Abelmoschus esculentus plots assessed as weed cover at 1.32 kg a.i/ha after 7 weeks (reference value: 14.7 +/- 0.46 %); type: functional
[11] = test system: Talinum fruticosum; assay: Herbicidal activity against Talinum fruticosum in Abelmoschus esculentus plots assessed as weed cover at 0.99 kg a.i/ha after 7 weeks (reference value: 14.7 +/- 0.46 %); type: functional
[12] = test system: Synedrella nodiflora; assay: Herbicidal activity against Synedrella nodiflora in Abelmoschus esculentus plots assessed as weed cover at 1.32 kg a.i/ha after 2 weeks (reference value: 63.5 +/- 0.29 %); type: functional
[13] = test system: Ageratum conyzoides; assay: Herbicidal activity against Ageratum conyzoides in Corchorus olitorius plots assessed as weed recovery at 1.32 kg a.i/ha after 2 weeks (reference value: 78.3 +/- 0.74 %); type: functional
[14] = test system: Mimosa pudica; assay: Herbicidal activity against Mimosa pudica in Abelmoschus esculentus plots assessed as weed cover at 0.33 kg a.i/ha after 2 weeks (reference value: 63.5 +/- 0.29 %); type: functional
[15] = test system: Corchorus olitorius; assay: Phytotoxicity in Corchorus olitorius assessed as crop seedling injury at 1.32 kg a.i/ha after 2 weeks relative to untreated control; type: organism-based; details: in vivo, 336 h
[16] = test system: Corchorus olitorius; assay: Phytotoxicity in Corchorus olitorius assessed as crop seedling injury at 0.99 kg a.i/ha after 2 weeks relative to untreated control; type: organism-based; details: in vivo, 336 h
[17] = test system: Corchorus olitorius; assay: Phytotoxicity in Corchorus olitorius assessed as crop seedling injury at 0.66 kg a.i/ha after 2 weeks relative to untreated control; type: organism-based; details: in vivo, 336 h
[18] = test system: Corchorus olitorius; assay: Phytotoxicity in Corchorus olitorius assessed as crop seedling injury at 0.33 kg a.i/ha after 2 weeks relative to untreated control; type: organism-based; details: in vivo, 336 h
[19] = test system: Euphorbia heterophylla; assay: Herbicidal activity against Euphorbia heterophylla in Abelmoschus esculentus plots assessed as weed cover at 0.33 kg a.i/ha after 7 weeks (reference value: 14.7 +/- 0.46 %); type: functional
[20] = test system: Abelmoschus esculentus; assay: Phytotoxicity in Abelmoschus esculentus assessed as root length at 0.99 kg a.i/ha treated to soil after 7 weeks (reference value: 2.9 +/- 0.45 mm); type: organism-based; details: in vivo, other, 1176 h
[21] = test system: Corchorus olitorius; assay: Phytotoxicity in Corchorus olitorius assessed as seedling injury at 0.33 kg a.i/ha applied as solution after 7 weeks relative to control; type: organism-based; details: in vivo, other, 1176 h
[22] = test system: Corchorus olitorius; assay: Phytotoxicity in Corchorus olitorius assessed as root length at 0.66 kg a.i/ha treated to soil after 7 weeks (reference value: 16.9 +/- 0.09 mm); type: organism-based; details: in vivo, other, 1176 h
[23] = test system: Chromolaena odorata; assay: Herbicidal activity against Chromolaena odorata in Corchorus olitorius plots assessed as weed cover at 0.99 kg a.i/ha after 2 weeks (reference value: 81.7 +/- 0.43 %); type: functional
[24] = test system: Commelina diffusa; assay: Herbicidal activity against Commelina diffusa in Corchorus olitorius plots assessed as weed cover at 0.66 kg a.i/ha after 2 weeks (reference value: 81.7 +/- 0.43 %); type: functional
[25] = test system: Synedrella nodiflora; assay: Herbicidal activity against Synedrella nodiflora in Corchorus olitorius plots assessed as weed cover at 1.32 kg a.i/ha after 7 weeks (reference value: 1.7 +/- 0.56 %); type: functional
[26] = test system: Abelmoschus esculentus; assay: Phytotoxicity in Abelmoschus esculentus assessed as shoot length at 0.33 kg a.i/ha applied as solution after 7 weeks (reference value: 28.7 +/- 0.34 mm); type: organism-based; details: in vivo, other, 1176 h
[27] = test system: Abelmoschus esculentus; assay: Phytotoxicity in Abelmoschus esculentus assessed as seed germination at 1.32 kg a.i/ha applied as solution after 7 weeks (reference value: 85.7 +/- 0.36 %); type: organism-based; details: in vivo, other, 1176 h
[28] = test system: Abelmoschus esculentus; assay: Phytotoxicity in Abelmoschus esculentus assessed as seed germination at 0.66 kg a.i/ha applied as solution after 7 weeks (reference value: 85.7 +/- 0.36 %); type: organism-based; details: in vivo, other, 1176 h
[29] = test system: Abelmoschus esculentus; assay: Phytotoxicity in Abelmoschus esculentus assessed as shoot length at 1.32 kg a.i/ha treated to soil after 7 weeks (reference value: 8.5 +/- 0.34 mm); type: organism-based; details: in vivo, other, 1176 h
[30] = test system: Abelmoschus esculentus; assay: Phytotoxicity in Abelmoschus esculentus assessed as shoot length at 0.99 kg a.i/ha treated to soil after 7 weeks (reference value: 8.5 +/- 0.34 mm); type: organism-based; details: in vivo, other, 1176 h
[31] = test system: Calopogonium mucunoides; assay: Herbicidal activity against Calopogonium mucunoides in Corchorus olitorius plots assessed as weed cover at 1.32 kg a.i/ha after 4 weeks (reference value: 20.1+/- 0.57 %); type: functional
[32] = test system: Euphorbia heterophylla; assay: Herbicidal activity against Euphorbia heterophylla in Corchorus olitorius plots assessed as weed cover at 1.32 kg a.i/ha after 4 weeks (reference value: 20.1+/- 0.57 %); type: functional
[33] = test system: Abelmoschus esculentus; assay: Phytotoxicity in Abelmoschus esculentus assessed as crop seedling injury at 0.66 kg a.i/ha after 2 weeks relative to untreated control; type: organism-based; details: in vivo, 336 h
[34] = test system: Calopogonium mucunoides; assay: Herbicidal activity against Calopogonium mucunoides in Abelmoschus esculentus plots assessed as weed recovery at 0.99 kg a.i/ha after 2 weeks (reference value: 60.1 +/- 0.46 %); type: functional
[35] = test system: Euphorbia heterophylla; assay: Herbicidal activity against Euphorbia heterophylla in Abelmoschus esculentus plots assessed as weed recovery at 0.99 kg a.i/ha after 2 weeks (reference value: 60.1 +/- 0.46 %); type: functional
[36] = test system: Synedrella nodiflora; assay: Herbicidal activity against Synedrella nodiflora in Abelmoschus esculentus plots assessed as weed recovery at 0.99 kg a.i/ha after 2 weeks (reference value: 60.1 +/- 0.46 %); type: functional
[37] = test system: Synedrella nodiflora; assay: Herbicidal activity against Synedrella nodiflora in Corchorus olitorius plots assessed as weed cover at 1.32 kg a.i/ha after 4 weeks (reference value: 20.1+/- 0.57 %); type: functional
[38] = test system: Calopogonium mucunoides; assay: Herbicidal activity against Calopogonium mucunoides in Corchorus olitorius plots assessed as weed cover at 0.99 kg a.i/ha after 4 weeks (reference value: 20.1+/- 0.57 %); type: functional

## CCC(CC)Nc1c([N+](=O)[O-])cc(C)c(C)c1[N+](=O)[O-] [PENDIMETHALIN]
[1]
  Activity: 53.8%
[2]
  Activity: 53.8%
[3]
  Activity: 31 /m2
[4]
  Activity: 1 /m2
[5]
  Activity: 31 /m2
[6]
  Activity: 31 /m2
[7]
  Activity: 1 /m2
[8]
  Activity: 31 /m2
[9]
  Activity: 31 /m2
[10]
  Activity: 82.4%
[11]
  Activity: 83.9%
[12]
  Activity: 45%
[13]
  Activity: 13.3%
[14]
  Activity: 56.8%
[15]
  Activity: 76.7%
[16]
  Activity: 60%
[17]
  Activity: 41.7%
[18]
  Activity: 41.7%
[19]
  Activity: 90%
[20]
  Activity: 1.1 mm
[21]
  Activity: 18.3%
[22]
  Activity: 13.7 mm
[23]
  Activity: 51.7%
[24]
  Activity: 51.7%
[25]
  Activity: 95%
[26]
  Activity: 14.5 mm
[27]
  Activity: 40.2%
[28]
  Activity: 46%
[29]
  Activity: 3.6 mm
[30]
  Activity: 5.6 mm
[31]
  Activity: 33.3%
[32]
  Activity: 33.3%
[33]
  Activity: 42.1%
[34]
  Activity: 36.2%
[35]
  Activity: 36.2%
[36]
  Activity: 36.2%
[37]
  Activity: 33.3%
[38]
  Activity: 48.3%
